A word on the inhibition: it is how much of the control response was suppressed. As a reminder, the Ki is a measure of affinity in units of concentration, obtained from inhibition or displacement. The term IC50 denotes the concentration needed to halve the response being measured. The term Vmax denotes the top rate of the reaction or transport when substrate is in excess. Broadly, the Km is the substrate concentration at which the rate is half of its maximum. The term melting point denotes the temperature, or range, at which the solid turns liquid.

The values below come from paper PMC6150025, “Novel Mixed-Type Inhibitors of Protein Tyrosine Phosphatase 1B. Kinetic and Computational Studies” (Molecules : A Journal of Synthetic Chemistry and Natural …, 2017).

One data set deals with T1, PTP1B (Homo sapiens, UniProt P18031).
T1 construct: encodes for PTP1B (residues 1–321); inferred from the pET28A vector, NdeI/BamHI cloning and Ni-agarose purification) (N); made in house; host or cells: E. coli BLR
T1 sequence (P18031 1-321): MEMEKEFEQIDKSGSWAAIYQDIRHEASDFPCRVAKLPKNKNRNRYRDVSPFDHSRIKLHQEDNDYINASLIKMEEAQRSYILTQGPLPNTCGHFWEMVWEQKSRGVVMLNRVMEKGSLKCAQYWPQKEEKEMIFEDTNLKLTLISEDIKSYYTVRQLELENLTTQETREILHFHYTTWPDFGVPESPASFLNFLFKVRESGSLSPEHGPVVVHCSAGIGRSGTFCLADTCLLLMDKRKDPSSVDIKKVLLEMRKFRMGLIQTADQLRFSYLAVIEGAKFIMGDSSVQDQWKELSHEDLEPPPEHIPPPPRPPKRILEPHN
As to the kind of experiment: PTP1B enzymatic inhibition assay (pNPP substrate). Format: biochemical. To be noted: for Ki: Lineweaver-Burk analysis, mixed type model; for Inhibition Type: Lineweaver-Burk plots; for IC50: curves at different concentration of each compound; for Vmax / Km: from fit of the kinetic data for each inhibitor; for α: mixed type inhibition model; for Km: pNPP. Here is the method:
The PTP1B activity was measured based on the Goldstein method. The assay was performed with a final reaction volume of 500 µL in HEPES buffer (50 mM HEPES, 1mM DTT, 2 mM EDTA and 150 mM NaCl, pH 7.0), DMSO (10%) and p-nitrophenol phosphate (pNPP) as substrate (50 mM), the reaction was started with the PTP1B (1.5 µg/mL). After 30 min of incubation at 37 °C, the reaction was stopped by the addition of 500 µL of NaOH 5N reading the absorbance at 405 nm. The number of hydrolyzed moles of pNPP was determined using the molar extinction coefficient of the product pNP (18,500 M^−1 cm^−1).
Inhibition assays were performed under the above described conditions, adding to the reaction each one of the molecules at a final concentration of 200 µM. The concentration that inhibits 50% (IC50) of the PTP1B activity was determined through curves at different concentration of each compound, adjusting the data to the equation reported elsewhere. The inhibition type and constant were obtained by the measurement of the initial velocities of hydrolysis varying the substrate concentration in a range of 2–30 µM, in absence or presence of fixed concentrations of each inhibitor. For compound 1 the concentrations used were 3, 6, 10 and 20 µM; in the case of compound 2 were 2, 4, 6, 8, and 10 µM; and for compound 3 were 20, 50, 70 and 90 µM. The experimental data were analyzed through the Lineweaver-Burk plot using the software Sigma Plot V12.3 (Systat Software, Inc., San Jose, CA, USA).

[1] abbreviates: 200 µM compound, pNPP 50 mM, 30 min, 37 °C.

As for `COc1cc(C(CC(=O)O)CC(=O)N2CCC(n3cccc3)CC2)cc(OC)c1OC` (stereo not shown) [5-oxo-5-[4-(1H-pyrrol-1-yl)piperidino]-3-(3,4,5-trimethoxyphenyl)pentanoic acid], the “% Inhibition (200 µM)” value on PTP1B (Table S1, 200 µM compound) was 38%.
As to `O=C(O)c1ccc2[nH]c3c(c2c1)CCCC3` [6,7,8,9-Tetrahydro-5h-carbazole-3-carboxylic acid], the “% Inhibition (200 µM)” value on PTP1B (Table S1, 200 µM compound) was determined as 32%.
Still for that read-out and setting: then `Cn1c(SCCn2ccnc2)nc2ccc(Cl)cc21` [6-chloro-2-{[2-(1H-imidazol-1-yl)ethyl]sulfanyl}-1-methyl-1H-benzimidazole], with 32%; and `O=C1COc2cc(O)ccc21` [6-hydroxy-2,3-dihydrobenzo[b]furan-3-one], with 37%.
Take `OCc1ccccc1N1CCOCC1` [(2-morpholinophenyl)methanol]: the inhibition at 200 µM at PTP1B (Table S1, 200 µM compound) is 44%.
In the case of `CSc1nc2cc(Cl)c(C(=O)Nc3nc4cc(Oc5cccc(Cl)c5Cl)c(Cl)cc4[nH]3)cc2n1C` [Compound 1, 5-Chloro-N-[6-chloro-5-(2,3-dichlorophenoxy)-1H-benzimidazol-2-yl]-1-methyl-2-(methylthio)-1H-benz-imidazole-6-carboxamide], on PTP1B (setting [1]), the inhibition at 200 µM was 100%. Also, on PTP1B, the inhibition constant (Ki) was 5.2 µM, the “Inhibition Type” value was “Mixed”, the 50% inhibitory concentration (IC50) came out at 7.5 µM and the Vmax came to 8.8 µmol/min/mg. In addition, on PTP1B, the α is on record as 1.4 and the Km amounted to 6.7 mM.
Turning to `O=C(CSc1nc2cc(Oc3cccc4ccccc34)c(Cl)cc2[nH]1)Nc1nccs1` [Compound 2, 2-[6-Chloro-5-(1-naphthalyloxy)-1H-benzimidazol-2-yl]thio-N-(thiazol-2-yl)acetamide], at PTP1B (setting [1]), the inhibition at 200 µM is 99%. Besides, at PTP1B, the Ki was 4.2 µM, the “Inhibition Type” value is on record as “Mixed”, the 50% inhibitory concentration (IC50) is 8.4 µM and the maximum rate (Vmax) was determined as 16 µmol/min/mg. On PTP1B, the α came out at 2.9 and the Km came to 6.8 mM.
Consider `O=C(Nc1nc2cc(Oc3cccc(Cl)c3Cl)c(Cl)cc2[nH]1)C(F)(F)F` [Compound 3, N-[6-Chloro-5-(2,3-dichlorophenoxy)-1H-benzimidazol-2-yl]-2,2,2-trifluoroacetamide], for which the inhibition at 200 µM at PTP1B (setting [1]) turned out to be 92%. Also, on PTP1B, the Ki was found to be 41.3 µM, the “Inhibition Type” value is “Mixed”, the 50% inhibitory concentration (IC50) was 31.3 µM and the maximal velocity (Vmax) is given as 10 µmol/min/mg. On PTP1B, the α is on record as 3.3 and the Km was determined as 4.1 mM.
On to `O=C(CSc1nnnn1-c1ccc(O)cc1)c1ccc2c(c1)OCO2` [Compound 4, 1-(1,3-benzodioxol-5-yl)-2-{[1-(4-hydroxyphenyl)-1H-1,2,3,4-tetraazol-5-yl]sulfanyl}-1-ethanone], for which the inhibition at 200 µM on PTP1B (setting [1]) turned out to be 88%.
Consider `CN(C)S(=O)(=O)Oc1ccc(-c2noc(-c3ccc(Oc4cc(Cl)cc(Cl)c4)o3)n2)cc1` [Compound 5, 4-{5-[5-(3,5-dichlorophenoxy)-2-furyl]-1,2,4-oxadiazol-3-yl}phenyl-N,N-dimethylsulfamate], for which the inhibition at 200 µM on PTP1B (setting [1]) is 85%.
Take `CCCc1cc(=O)oc2cc(OC(C)C(=O)NNS(=O)(=O)c3cccc(C(F)(F)F)c3)ccc12` (stereo not shown) [Compound 6, N′1-{2-[(2-oxo-4-propyl-2H-chromen-7-yl)oxy]propanoyl}-3-(trifluoromethyl)benzene-1-sulfonohydrazide]: on PTP1B (setting [1]), the inhibition at 200 µM was determined as 84%.
`COc1cc2nc(SCC(=O)Nc3ccc(F)c(Cl)c3)n(-c3ccccc3)c(=O)c2cc1OC` [Compound 7, N-(3-chloro-4-fluorophenyl)-2-[(6,7-dimethoxy-4-oxo-3-phenyl-3,4-dihydro-2-quinazolinyl)sulfanyl]acetamide]: the inhibition at 200 µM at PTP1B (setting [1]) turned out to be 80%.
Turning to `CCCCCc1ccc(S(=O)(=O)Nc2ncccc2OCc2cc(F)cc(F)c2)cc1` [Compound 8, N-{3-[(3,5-difluorobenzyl)oxy]pyridin-2-yl}-4-pentylbenzenesulfonamide], the inhibition at 200 µM amounted to 74% at PTP1B (setting [1]) and 64% at PTP1B (Table S1, 200 µM compound).
`CC(=O)Nc1nc2cc(Oc3cccc(Cl)c3Cl)c(Cl)cc2n1C` [Compound 9, N-[6-Chloro-5-(2,3-dichlorophenoxy)-1-methyl-1H-benzimidazol-2-yl]acetamide] displayed a melting point of 237.5 to 238.9 °C. For the same compound, the inhibition at 200 µM at PTP1B (setting [1]) came to 70%.
Consider `C[S+]([O-])c1nc2cc(Cl)c(Oc3cccc4ccccc34)cc2[nH]1` (stereo not shown) [Compound 10], for which the inhibition at 200 µM on PTP1B (setting [1]) turned out to be 65%.
On to `Cc1cc(-c2nn(C)c(=O)c3ccccc23)cc(C)c1OCC(=O)NNC(=O)Nc1ccccc1` [N1-phenyl-2-{2-[2,6-dimethyl-4-(3-methyl-4-oxo-3,4-dihydrophthalazin-1-yl)phenoxy]acetyl}hydrazine-1-carboxamide], for which, at PTP1B (Table S1, 200 µM compound), the “% Inhibition (200 µM)” value came to 52%.
On to `COc1cc(C=NNC(=O)CSCc2c(C)c(C)c(C)c(C)c2C)cc(OC)c1OC` [N'1-(3,4,5-trimethoxybenzylidene)-2-[(2,3,4,5,6-pentamethylbenzyl)thio]ethanohydrazide], for which the “% Inhibition (200 µM)” value on PTP1B (Table S1, 200 µM compound) is on record as 63%.
On to `O=C(NNS(=O)(=O)c1cc(C(F)(F)F)cc(C(F)(F)F)c1)c1cnn(-c2ccccc2)c1C(F)(F)F` [N'1-{[1-phenyl-5-(trifluoromethyl)-1H-pyrazol-4-yl]carbonyl}-3,5-di(trifluoromethyl)benzene-1-sulfonohydrazide], for which the “% Inhibition (200 µM)” value on PTP1B (Table S1, 200 µM compound) was found to be 45%.
As to `CN(C)S(=O)(=O)Oc1ccc(-c2noc(-c3ccc(OC(F)(F)F)cc3)n2)cc1` [N,N-dimethyl(4-{5-[4-(trifluoromethoxy)phenyl]-1,2,4-oxadiazol-3-yl}phenyl)sulfamate], the “% Inhibition (200 µM)” value at PTP1B (Table S1, 200 µM compound) was 38%.
In the case of `O=S(=O)(c1ccc(NC(=S)Nc2ccc3c(c2)OCO3)cc1)N1CCCCC1` [N-(1,3-benzodioxol-5-yl)-N'-[4-(piperidinosulfonyl)phenyl]thiourea], the “% Inhibition (200 µM)” value at PTP1B (Table S1, 200 µM compound) amounted to 32%.
Take `CSc1nc2cc(C(=O)Nc3nc4cc(Oc5cccc(Cl)c5Cl)c(Cl)cc4[nH]3)ccc2n1C` [N-[6-chloro-5-(2,3-dichlorophenoxy)-1H-benzimidazol-2-yl]-1-methyl-2-(methylsulfanyl)-1H-benzimidazole-5-carboxamide]: on PTP1B (Table S1, 200 µM compound), the “% Inhibition (200 µM)” value came out at 42%.
On the same count and under the same terms, in the case of `COC(=O)c1cccc2nc(Cc3ccc([N+](=O)[O-])cc3)sc12` [methyl 2-[(4-nitrophenyl)methyl]-1,3-benzothiazole-7-carboxylate] it was 64%.
As to `COC(=O)c1cc(S(=O)(=O)NCC2CN(Cc3ccccc3)CN(Cc3ccccc3)C2)oc1C` [methyl 5-({[(1,3-dibenzylhexahydro-5-pyrimidinyl)methyl]amino}sulfonyl)-2-methyl-3-furoate], on PTP1B (Table S1, 200 µM compound), the “% Inhibition (200 µM)” value stood at 50%.
In the case of `COC(=O)c1cc2nc(SCC(=O)Nc3ncc([N+](=O)[O-])s3)[nH]c2cc1Cl` [methyl 6-chloro-2-({2-[(5-nitro-1,3-thiazol-2-yl)amino]-2-oxoethyl}sulfanyl)-1H-benzimidazole-5-carboxylate], the “% Inhibition (200 µM)” value at PTP1B (Table S1, 200 µM compound) amounted to 63%.
For the compound `COC(=O)c1cc2nc(SCC(=O)Nc3ccc([N+](=O)[O-])cn3)[nH]c2cc1Cl` [methyl 6-chloro-2-({2-[(5-nitropyridin-2-yl)amino]-2-oxoethyl}sulfanyl)-1H-benzimidazole-5-carboxylate], the “% Inhibition (200 µM)” value on PTP1B (Table S1, 200 µM compound) was determined as 63%.
For `COC(=O)c1c(Cl)ccc2nc(Cc3ccc([N+](=O)[O-])cc3)sc12` [methyl 6-chloro-2-[(4-nitrophenyl)methyl]-1,3-benzothiazole-7-carboxylate], the “% Inhibition (200 µM)” value at PTP1B (Table S1, 200 µM compound) came to 56%.
